Legend:
[1] = biological target: mycothiol S-conjugate amidase in partially purified M. smegmatis cell extract (Mycolicibacterium smegmatis, UniProt A0R2W9); details: for product yielded from 1.0 equivalent of MSmB (0.1 nmol): 4 determinations at >50% conversion
Protocol: The experiment was repeated using a partially purified cell extract and samples of the incubation mixture were analyzed at intervals for the other potential product of MSmB cleavage, GlcN-Ins, as well as for MSmB and AcCySmB.
A preparation of the mycothiol S-conjugate amidase (30–50% saturated ammonium sulfate fraction chromatographed on Sephadex G-75) was used to study the stoichiometry of the reaction. Reaction was initiated by mixing a sample (9 μL, 7 μg total protein) of the preparation of the enzyme with 0.9 mL of 50 mM sodium phosphate, pH 7.5 containing 100 μM MSmB.
For determination of bimane derivatives of thiols, a sample (70 μL) of reaction mixture was removed, mixed with 4 μL 5 M methanesulfonic acid, and analyzed by HPLC without dilution.
For analysis of GlcN-Ins, a sample (2–8 μL) of the reaction mixture was mixed with enough 1M HEPES chloride pH 8 to bring the volume to 10 μl and then with 5 μL acetonitrile and 5 μL of 10 mM AccQ-Fluor reagent (6-aminoquinolyl-N-hydroxysuccinimidyl carbamate, Waters). The mixtures were incubated for 1 min at room temperature followed by 10 min at 60° C., diluted with 60 μL of water, and quantified by HPLC as previously described (S. J. Anderberg, et al. (1998) supra.).

[2] = biological target: T1, purified M. smegmatis mycothiol S-conjugate amidase (Mycolicibacterium smegmatis, UniProt A0R2W9); experiment: Substrate specificity of purified mycothiol S-conjugate amidase (GlcN-Ins production); format: biochemical, Mycobacterium smegmatis; details: for Activity: GlcN-Ins production from 0.1 mM substrate by 0.022 μg purified amidase at 30 C; for Relative Activity (%): relative to MSmB taken as 100%, 0.1 mM substrate
T1 sequence (A0R2W9 whole entry): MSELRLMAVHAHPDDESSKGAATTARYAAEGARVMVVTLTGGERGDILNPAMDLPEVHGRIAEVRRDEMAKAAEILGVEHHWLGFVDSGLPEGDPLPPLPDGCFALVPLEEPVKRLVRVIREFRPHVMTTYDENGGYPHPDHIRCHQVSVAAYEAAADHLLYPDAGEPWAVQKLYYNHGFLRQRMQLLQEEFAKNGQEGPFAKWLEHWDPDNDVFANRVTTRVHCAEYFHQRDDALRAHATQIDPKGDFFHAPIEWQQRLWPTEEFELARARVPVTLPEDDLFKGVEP
Protocol: The specificity of the amidase for substrate was assessed by measuring the production of GlcN-Ins in most cases. A sample (5 μL) of 1 mM substrate was mixed with 40 μL of 3 mM 2-mercaptoethanol, 25 mM HEPES chloride, pH 7.5. The reaction was initiated with 5 μL of purified amidase (50-fold diluted stock, 4.4 μg ml^−1). Triplicate samples were quenched at 0, 10, and 30 min by mixing each sample with 50 μL of acetonitrile containing 5 mM NEM and incubating at 60 C for 10 min. After cooling on ice, the samples were clarified by centrifugation for 15 min at 14000 g. […]

[3] = tested on: M. smegmatis mutant blocked in mycothiol production; details: Newton et al. (1999); cited from earlier work
[4] = tested on: M. smegmatis mc^2155 cells; experiment: M. smegmatis culture treated with mBBr: fate of mycothiol-related compounds and growth; format: cell-based, Mycobacterium smegmatis
Protocol: Since mBBr is known to penetrate cells rapidly and to convert intracellular thiols to their bimane derivatives (Newton, et al. (1995) supra.), the fate of mycothiol in M. smegmatis cells treated with mBBr was examined to ascertain whether the reaction shown in FIG. 1C occurs in vivo. A logarithmic phase culture of M. smegmatis was cooled on ice to ˜3° C. to reduce enzymatic reactions prior to reaction with 0.5 mM mBBr. Excess reagent was reacted with 2-mercaptoethanol and the cells were pelleted, washed, and resuspended in a small amount of ice cold medium. The cells were diluted with prewarmed medium and replaced in the shaking incubator at 37° C. (time, t=0). Samples were removed and analyzed for intracellular and extracellular mycothiol related compounds over a 4 h interval (FIG. 3).
A logarithmic phase culture of M. smegmatis was cooled on ice to ˜3° C. to reduce enzymatic reactions prior to reaction with 0.5 mM mBBr. Excess reagent was reacted with 2-mercaptoethanol and the cells were pelleted, washed, and resuspended in a small amount of ice cold medium. The cells were diluted with prewarmed medium and replaced in the shaking incubator at 37° C. (time, t=0). Samples were removed and analyzed for intracellular and extracellular mycothiol related compounds over a 4 h interval (FIG. 3).
At t=0, […] per 100 mL (3.5 μmol per g RDW) of AcCySmB was present in the cells and […] per 100 mL was found in the medium. Within 5 min the cellular AcCySmB level had fallen to […] per 100 mL and the medium level increased to 220 nmol per 100 mL. Subsequent analyses found essentially all of the AcCySmB in the medium at a level of 225–230 nmol per 100 mL, accounting for 80–90% of the original cellular mycothiol content. No MSmB appears to be exported from cells as […] (<0.5%) was detected in the medium or the cell washes. A logarithmic phase culture (1 L) of M. smegmatis mc^2155 (OD600=1.2) in 7H9 Middlebrook medium was cooled on ice to 3° C. The iced culture was incubated with mBBr (0.5 mM from a 180 mM stock solution in acetonitrile) for 20 min; excess 2-mercaptoethanol (1.0 mM) was added, and the incubation continued on ice for an additional 10 min. The cells were pelleted by centrifugation and washed twice with 200 mL of sterile, ice-cold 7H9 Middlebrook medium to remove excess bimane derivative of 2-mercaptoethanol. The cells were resuspended in 50 mL of sterile ice cold medium and the experiment was initiated (t=0) by dilution into 950 mL of prewarmed (37° C.) 7H9 Middlebrook medium. The cell suspension was shaken in an incubator (225 rpm, 37° C.) and a “t=0” sample (100 mL) was removed from the culture within one min. […]

[5] = biological target: T1, purified M. smegmatis mycothiol S-conjugate amidase
Protocol: In vitro Enzymatic assays. […] Separation of the various modified thiols was performed by high-pressure liquid chromatography (HPLC). A sample (2–10 μL) of extract was mixed with 40 μL of 30 μM MSmB in 3 mM 2-mercaptoethanol, 25 mM N-2-hydroxyethylpiperazine-N′-2-ethanesulfonic acid (HEPES) chloride pH 7.5 and reacted […] at 30° C. before quenching the reaction with 50 μL of 40 mM methanesulfonic acid on ice. The mixture was centrifuged for 3 min at 14,000×g in a microcentrifuge at room temperature and the supernatant analyzed by HPLC without dilution. A shortened version (45 min) of HPLC method 1 of Fahey and Newton (R. C. Fahey, et al. (1987) Methods Enzymol. 143:85–96) was used for separation of MSmB and AcCySmB.

[6] = biological target: M. tuberculosis mycothiol S-conjugate amidase (Rv1082) (Mycobacterium tuberculosis, UniProt P9WJN1); experiment: Amidase activity of recombinant Rv1082 protein expressed in E. coli; format: biochemical, Mycobacterium tuberculosis H37Rv; details: for amidase activity: 0.1 mM (100 μM) substrate, extracts of IPTG-induced cells
Chain of M. tuberculosis mycothiol S-conjugate amidase (Rv1082) (P9WJN1 whole entry, looked up): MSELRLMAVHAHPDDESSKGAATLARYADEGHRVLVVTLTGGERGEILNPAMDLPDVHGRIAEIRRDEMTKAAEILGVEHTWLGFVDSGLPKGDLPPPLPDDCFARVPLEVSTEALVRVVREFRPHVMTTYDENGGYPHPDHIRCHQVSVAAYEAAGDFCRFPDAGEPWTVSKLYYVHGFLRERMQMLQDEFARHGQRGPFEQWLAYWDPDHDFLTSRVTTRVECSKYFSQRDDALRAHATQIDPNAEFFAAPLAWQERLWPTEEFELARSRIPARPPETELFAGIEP
Protocol: Purification and renaturation of mycothiol S-conjugate amidase from inclusion bodies. The approach taken involved solublization of the inclusion bodies in a highly concentrated urea and DTT solution followed by […] Cells were cultured in Luria Bertani broth containing 100 μg/mL ampicillin at 37° C. to OD600=0.8 when isopropyl-β-D-thiogalactopyranoside added to 0.4 mM and the culture was shaken overnight at 25° C. Cells were pelleted by centrifugation for 10 min at 5000 g and 4° C., sonicated in 5 volumes of assay buffer on ice, and centrifuged for 5 min at 14000 g at room temperature. About 85% of the amidase activity, using MSmB as substrate, was associated with the pellet fraction which was resuspended and incubated with periodic vortexing for 1 h at 37° C. in 8 M urea containing 20 mM DTT. The suspension was centrifuged for 3 min at 14000 g and the supernatant dialyzed against 100 volumes of 25 mM HEPES chloride pH 7.5 containing 1 mM glutathione disulfide and 2 mM glutathione for 15 h, and then against 100 volumes of 25 mM HEPES chloride pH 7.5 containing 3 mM 2-mercaptoethanol for 4 h. After centrifugation, the supernatant contained soluble amidase activity and was assayed with 0.1 mM mycothiol and 0.1 mM MSmB as described above.
Alkylation of MSH with mBBr produces the fluorescent S-conjugate, MSmB, which can be quantitated by HPLC with fluorescence detection (Newton et al. 1995; Newton et al. 1996). E coli has no mycothiol metabolism and is not expected to contain mycothiol conjugate amidase endogenous proteins that would give background to these assays.
Functional and Comparative analysis of mycothiol S-conjugate amidase. […] When these extracts were assayed with 0.1 mM mycothiol as substrate, <0.002 nmol/min/mg amidase activity was observed. […] (Table 2).

[7] = biological target: M. smegmatis mycothiol S-conjugate amidase (Mycolicibacterium smegmatis, UniProt A0R2W9); experiment: Inhibition of amidase cleavage of MSmB; format: biochemical, Mycobacterium smegmatis; details: 100 μM MSmB as substrate, n=2
Chain of M. smegmatis mycothiol S-conjugate amidase (A0R2W9 whole entry): as the sequence (A0R2W9 whole entry) above
Protocol: Tests were also conducted to determine whether mycothiol inhibits the cleavage of 100 μM MSmB by invention S-conjugate amidase. The amidase activity was decreased by 30±3, 48±3, and 89±3% (n=2) at 1, 3, and 10 mM mycothiol, respectively.
Preparation of Mycothiol S-conjugates. Mycothiol S-conjugates were prepared by reaction of excess electrophile with mycothiol followed by removal or reaction of excess electrophile. Stock solutions (100 mM) of electrophile were prepared in acetonitrile (NEM, iodoacetamide; Sigma) or in dimethylsulfoxide [7-diethylamino-3-(4′-maleimidylphenyl)-4-methylcoumarin (CPM, Molecular Probes), 3-(N-maleimidopropionyl)biocytin (MPB, Sigma)]. Reaction with these electrophiles at 2 mM in 25 mM *HEPES chloride pH 7.5 was initiated by addition of mycothiol to 1 mM from a 32 mM stock solution in H2O (pH˜3) and was allowed to proceed 15 min in the dark. Excess reagent was removed by extracting 3 times with an equal volume of H2O-saturated dichloromethane. A cerulenin (Sigma) stock solution (100 mM in acetonitrile) was diluted 5-fold in 25 mM HEPES chloride pH 7.5, reacted 15 min with 1 mM mycothiol, and extracted 5 times with H2O-saturated dichloromethane. Prior to extraction a 1 μL aliquot was withdrawn for reaction with mBBr and analysis of residual mycothiol by HPLC. […] Stock solutions (50 mM) of p-sulfobenzoyloxybromobimane (sBBr) and monobromotrimethylammoniobimane (qBBr) were prepared in 50% aqueous dimethylsulfoxide and diluted to 2 mM for reaction with 1 mM mycothiol in 25 mM HEPES chloride pH 7.5 for 15 min. Since these charged electrophiles cannot be extracted with dichloromethane, reaction was terminated with excess (1.1 mM) 2-mercaptoethanol.

[8] = 0.1 mM substrate, resolubilized crude protein extract

Chain of mycothiol S-conjugate amidase in partially purified M. smegmatis cell extract (A0R2W9 whole entry): as above

Structure (SMILES): N[C@H]1[C@@H](OC2[C@H](O)[C@H](O)C(O)[C@H](O)[C@H]2O)O[C@H](CO)[C@@H](O)[C@@H]1O (stereo partly drawn) [GlcN-Ins, 1-D-myo-inosityl-2-amino-2-deoxy-α-D-glucopyranoside]
- product yielded from 1.0 equivalent of MSmB (0.1 nmol) [1]: 0.80±0.08 equivalent

Structure (SMILES): CC(=O)N[C@@H](CSCc1c(C)c(=O)n2c(=O)c(C)c(C)n12)C(=O)O [AcCySmB]
- product yielded from 1.0 equivalent of MSmB (0.1 nmol) [1]: 1.00±0.02 equivalent

Structure (SMILES): CC(=O)N[C@@H](CSSC[C@H](NC(C)=O)C(=O)N[C@H]1[C@@H](OC2[C@H](O)[C@H](O)C(O)[C@H](O)[C@H]2O)O[C@H](CO)[C@@H](O)[C@@H]1O)C(=O)N[C@H]1[C@@H](OC2[C@H](O)[C@H](O)C(O)[C@H](O)[C@H]2O)O[C@H](CO)[C@@H](O)[C@@H]1O (some centres unmarked) [Mycothiol disulfide]
- Activity [2]: 25 ± 1 nmol/min/mg
- Relative Activity (%) [2]: 0.6%

Structure (SMILES): CO[C@H]1/C=C/O[C@@]2(C)Oc3c(C)c(O)c4c(O)c(c(/C=N/N5CCN(C)CC5)c(O)c4c3C2=O)NC(=O)/C(C)=C\C=C\[C@H](C)[C@H](O)[C@@H](C)[C@@H](O)[C@@H](C)[C@H](OC(C)=O)[C@@H]1C [rifampin]
- increased sensitivity of the mutant [3]: 20 fold

Structure (SMILES): Cc1c(C)n2c(CBr)c(C)c(=O)n2c1=O [mBBr, monobromobimane]
- A600 ([4]; 8.5 h at 37 C after mBBr treatment): 1.6
- final A600 ([4]; 30 h at 37 C after mBBr treatment): ~2.6
- initial decrease of A600 value ([4]; during the 4 h incubation after 0.5 mM mBBr treatment): ~15%
- A600 value recovered ([4]; within the 4 h incubation, equals initial value): 1.2

Structure (SMILES): CC(=O)N[C@@H](CSCc1c(C)c(=O)n2c(=O)c(C)c(C)n12)C(=O)N[C@H]1[C@@H](OC2[C@H](O)[C@H](O)C(O)[C@H](O)[C@H]2O)O[C@H](CO)[C@@H](O)[C@@H]1O (some centres unmarked) [MSmB]
- Activity [2]: 4480 ± 870 nmol/min/mg
- Relative Activity (%) [2]: (100) %
- specific activity of pooled G-100 peak fractions ([5]; 30 μM MSmB as substrate): ~3,000 nmol/min-mg protein
- amidase reaction rate ([5]; 30 μM MSmB, purified amidase): ~3000 nmol/min/mg
- Km ([5]; MSmB as substrate): 95 ± 8 µM
- kcat ([5]; MSmB as substrate): 8 s⁻¹
- amidase activity [6]: 4.1 nmol/min/mg
- AcCysmB produced [6, 8]: 5.4±0.3 nmoles/min/mg protein
- GlcN-Ins produced [6, 8]: 4.1±0.05 nmoles/min/mg protein
- rate enhancement relative to mycothiol (free thiol) ([6]; recombinant M. tuberculosis amidase): more than 2000 fold
- conversion of MSmB ([1]; 60 min at 23° C.): 97%

Structure (SMILES): CC(=O)N[C@@H](CS)C(=O)N[C@H]1[C@@H](OC2[C@H](O)[C@H](O)C(O)[C@H](O)[C@H]2O)O[C@H](CO)[C@@H](O)[C@@H]1O (stereo partly drawn) [Mycothiol, 1-D-myo-inosityl-2-(N-acetylcysteinyl)amido-2-deoxy-α-D-glucopyranoside]
- rate as % of the rate with 0.1 mM MSmB ([2]; 2 mM mycothiol): 0.3%
- rate of GlcN-Ins formation ([2]; 2 mM mycothiol, conditions otherwise as for Table 2): 14 ± 1 nmol/min/mg
- Activity [2]: 4 ± 1 nmol/min/mg
- Relative Activity (%) [2]: 0.1%
- decrease of amidase activity ([7]; 1 mM mycothiol): 30±3%
- decrease of amidase activity ([7]; 3 mM mycothiol): 48±3%
- decrease of amidase activity ([7]; 10 mM mycothiol): 89±3%
- amidase activity [6]: < 0.002 nmol/min/mg
- GlcN-Ins produced [6, 8]: < 0.0023 nmoles/min/mg protein
